Assay results as given in US12252484B2, “Pyrazolopyridine compounds for the treatment of autoimmune disease” (Hoffmann-La Roche Inc., priority 2018, dated 2025).

Target: T1, human TLR9 (Homo sapiens, UniProt Q9NR96)
T1 sequence (Q9NR96 26-1032): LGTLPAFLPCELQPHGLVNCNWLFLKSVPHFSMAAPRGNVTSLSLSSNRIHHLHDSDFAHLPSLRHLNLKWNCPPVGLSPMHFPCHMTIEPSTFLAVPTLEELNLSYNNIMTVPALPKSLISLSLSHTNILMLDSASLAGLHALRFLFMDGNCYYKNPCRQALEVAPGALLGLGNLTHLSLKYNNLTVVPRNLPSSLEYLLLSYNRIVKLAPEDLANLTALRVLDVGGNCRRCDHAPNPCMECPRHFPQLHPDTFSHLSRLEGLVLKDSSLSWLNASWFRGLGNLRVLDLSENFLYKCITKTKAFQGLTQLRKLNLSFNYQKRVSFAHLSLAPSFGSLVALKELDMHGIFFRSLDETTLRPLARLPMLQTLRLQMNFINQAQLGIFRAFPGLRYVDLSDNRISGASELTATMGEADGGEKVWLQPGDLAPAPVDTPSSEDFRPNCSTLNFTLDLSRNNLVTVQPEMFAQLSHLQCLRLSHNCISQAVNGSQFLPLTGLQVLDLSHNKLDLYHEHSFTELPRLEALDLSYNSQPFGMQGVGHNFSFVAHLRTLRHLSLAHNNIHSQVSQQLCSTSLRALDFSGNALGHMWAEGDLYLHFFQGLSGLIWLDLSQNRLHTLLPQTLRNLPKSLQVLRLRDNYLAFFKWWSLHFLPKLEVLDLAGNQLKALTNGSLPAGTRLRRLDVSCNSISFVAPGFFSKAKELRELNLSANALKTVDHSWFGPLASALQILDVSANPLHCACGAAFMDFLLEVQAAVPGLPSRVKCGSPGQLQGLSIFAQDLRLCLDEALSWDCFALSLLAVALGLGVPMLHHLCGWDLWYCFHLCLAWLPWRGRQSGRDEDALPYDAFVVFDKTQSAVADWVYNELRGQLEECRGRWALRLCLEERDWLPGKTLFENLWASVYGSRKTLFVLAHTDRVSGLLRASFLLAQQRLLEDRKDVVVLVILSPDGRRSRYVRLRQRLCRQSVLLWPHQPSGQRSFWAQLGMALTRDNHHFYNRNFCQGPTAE
Assay: HEK293-Blue-hTLR-9 cells assay (SEAP reporter, ODN2006 stimulation)
Type: cell-based
Settings: HEK293-Blue-hTLR-9 cells, ODN2006 ligand, 20 hrs incubation; read-out: TLR9 IC50
Procedure: The following tests were carried out in order to determine the activity of the compounds of formula (I) in HEK293-Blue-hTLR-7/8/9 cells assay.
HEK293-Blue-hTLR-9 Cells Assay:
A stable HEK293-Blue-hTLR-9 cell line was purchased from InvivoGen (Cat. #: hkb-htlr9, San Diego, California, USA). These cells were originally designed for studying the stimulation of human TLR9 by monitoring the activation of NF-κB. A SEAP (secreted embryonic alkaline phosphatase) reporter gene was placed under the control of the IFN-β minimal promoter fused to five NF-κB and AP-1-binding sites. The SEAP was induced by activating NF-κB and AP-1 via stimulating HEK-Blue hTLR9 cells with TLR9 ligands. Therefore the reporter expression was declined by TLR9 antagonist under the stimulation of a ligand, such as ODN2006 (Cat. #: tlrl-2006-1, Invivogen, San Diego, California, USA), for incubation of 20 hrs. The cell culture supernatant SEAP reporter activity was determined using QUANTI-Blue™ kit (Cat. #: rep-qb1, Invivogen, San Diego, California, USA) at a wavelength of 640 nm, a detection medium that turns purple or blue in the presence of alkaline phosphatase.
HEK293-Blue-hTLR9 cells were incubated at a density of 250,000˜450,000 cells/mL in a volume of 170 μL in a 96-well plate in Dulbecco's Modified Eagle's medium (DMEM) containing 4.5 g/L glucose, 50 U/mL penicillin, […], 2 mM L-glutamine, 10% (v/v) heat-inactivated fetal bovine serum with addition of 20 μL test compound in a serial dilution in the presence of final DMSO at 1% and 10 μL of 20 uM ODN2006 in above DMEM, perform incubation under 37° C. in a CO2 incubator for 20 hrs. Then 20 μL of the supernatant from each well was incubated with 180 μL Quanti-blue substrate solution at 37° C. for 2 hrs and the absorbance was read at 620˜655 nm using a spectrophotometer. The signalling pathway that TLR9 activation leads to downstream NF-κB activation has been widely accepted, and therefore similar reporter assay was modified for evaluating TLR9 antagonist.

SMILES | IC50 [µM]
C[C@@H]1CN(c2ccc(C#N)n3ncc(F)c23)C[C@H](C(=O)NC2CCN(C)CC2)O1 [Example 47, (2R,6R)-4-(7-cyano-3-fluoro-pyrazolo[1,5-a]pyridin-4-yl)-6-methyl-N-(1-methyl-4-piperidyl)morpholine-2-carboxamide] | 14
C[C@@H]1CN(c2ccc(C#N)n3nccc23)C[C@H](C(=O)NCC2CNCC2(F)F)O1 (stereo partly drawn) [Example 18, (2R,6R)-4-(7-cyanopyrazolo[1,5-a]pyridin-4-yl)-N-[(4,4-difluoropyrrolidin-3-yl)methyl]-6-methyl-morpholine-2-carboxamide] | > 100
C[C@@H]1CN(c2ccc(C#N)n3nccc23)C[C@H](C(=O)NC2CCNCC2)O1 [Example 24, (2R,6R)-4-(7-cyanopyrazolo[1,5-a]pyridin-4-yl)-6-methyl-N-(4-piperidyl)morpholine-2-carboxamide] | 13
C[C@@H]1CN(c2ccc(C#N)n3nccc23)C[C@H](C(=O)N2CCC3(CCNCC3)CC2)O1 [Example 28, 4-[(2R,6R)-2-(3,9-diazaspiro[5.5]undecane-3-carbonyl)-6-methyl-morpholin-4-yl]pyrazolo[1,5a]pyridine-7-carbonitrile] | 1.7
C[C@@H]1CN(c2ccc(C#N)n3nccc23)C[C@H](C(=O)NC2CCOCC2)O1 [Example 4, (2R,6R)-4-(7-cyanopyrazolo[1,5-a]pyridin-4-yl)-6-methyl-N-tetrahydropyran-4-yl-morpholine-2-carboxamide] | > 100
COCCNC(=O)[C@H]1CN(c2ccc(C#N)n3nccc23)C[C@@H](C)O1 [Example 9, (2R,6R)-4-(7-cyanopyrazolo[1,5-a]pyridin-4-yl)-N-(2-methoxyethyl)-6-methyl-morpholine-2-carboxamide] | > 100
C[C@@H]1CN(c2ccc(C#N)n3nccc23)C[C@H](C(=O)NC2CCN(C)CC2)O1 [Example 1, (2R,6R)-4-(7-cyanopyrazolo[1,5-a]pyridin-4-yl)-6-methyl-N-(1-methyl-4-piperidyl)morpholine-2-carboxamide] | 15
C[C@@H]1CN(c2ccc(C#N)n3nccc23)C[C@H](C(=O)NC23CC(CO)(C2)C3)O1 [Example 15, (2R,6R)-4-(7-cyanopyrazolo[1,5-a]pyridin-4-yl)-N-[3-(hydroxymethyl)-1-bicyclo[1.1.1]pentanyl]-6-methyl-morpholine-2-carboxamide] | > 100
C[C@@H]1CN(c2ccc(C#N)n3nccc23)C[C@H](C(=O)Nc2ccc(C(=O)N3CCNCC3)cc2)O1 [Example 42, (2R,6R)-4-(7-cyanopyrazolo[1,5-a]pyridin-4-yl)-6-methyl-N-[4-(piperazine-1-carbonyl)phenyl]morpholine-2-carboxamide] | 1.8
C[C@@H]1CN(c2ccc(C#N)n3nccc23)C[C@H](C(=O)NC(C)(C)CO)O1 [Example 16, (2R,6R)-4-(7-cyanopyrazolo[1,5-a]pyridin-4-yl)-N-(2-hydroxy-1,1-dimethyl-ethyl)-6-methyl-morpholine-2-carboxamide] | > 100
C[C@H]1C[C@@H](N)CN(c2ccc(C#N)n3nccc23)C1 [Example 43, 4-[(3R,5S)-3-amino-5-methyl-1-piperidyl]pyrazolo[1,5-a]pyridine-7-carbonitrile] | 10
C[C@@H]1CN(c2ccc(C#N)n3nccc23)C[C@H](C(=O)NCC2CN(C)CCO2)O1 (stereo partly drawn) [Example 7, (2R,6R)-4-(7-cyanopyrazolo[1,5-a]pyridin-4-yl)-6-methyl-N-[(4-methylmorpholin-2-yl)methyl]morpholine-2-carboxamide] | 58
CCC(O)CNC(=O)[C@H]1CN(c2ccc(C#N)n3nccc23)C[C@@H](C)O1 (stereo partly drawn) [Example 13, (2R,6R)-4-(7-cyanopyrazolo[1,5-a]pyridin-4-yl)-N-(2-hydroxybutyl)-6-methyl-morpholine-2-carboxamide] | > 100
C[C@@H]1CN(c2ccc(C#N)n3nccc23)C[C@H](C(=O)NC2CNC[C@H]2F)O1 (stereo partly drawn) [Example 5, Cis-(2R,6R)-4-(7-cyanopyrazolo[1,5-a]pyridin-4-yl)-6-methyl-N-(4-fluoropyrrolidin-3-yl) morpholine-2-carboxamide] | 77
C[C@H]1C[C@@H](NCC#N)CN(c2ccc(C#N)n3nccc23)C1 [Example 46, 4-[(3R,5S)-3-(cyanomethylamino)-5-methyl-1-piperidyl]pyrazolo[1,5-a]pyridine-7-carbonitrile] | 31
C[C@@H]1CN(c2ccc(C#N)n3nccc23)C[C@H](C(=O)NC2CC3CCC(C2)N3C)O1 (stereo partly drawn) [Example 33, (2R,6R)-4-(7-cyanopyrazolo[1,5-a]pyridin-4-yl)-6-methyl-N-(8-methyl-8-azabicyclo[3.2.1]octan-3-yl)morpholine-2-carboxamide] | 7.7
C[C@@H]1CN(c2ccc(C#N)n3nccc23)C[C@H](C(=O)NC2CC3CCC(C2)N3)O1 (stereo partly drawn) [Example 23, Exo-(2R,6R)-N-[8-azabicyclo[3.2.1]octan-3-yl]-4-(7-cyanopyrazolo[1,5-a]pyridin-4-yl)-6-methyl-morpholine-2-carboxamide] | > 100
C[C@@H]1CN(c2ccc(C#N)n3nccc23)C[C@H](C(=O)N[C@H]2CC[C@@H](O)CC2)O1 [Example 20, Cis-(2R,6R)-4-(7-cyanopyrazolo[1,5-a]pyridin-4-yl)-N-(4-hydroxycyclohexyl)-6-methyl-morpholine-2-carboxamide] | 71
